Experimental data as given in ChEMBL document CHEMBL1132739, “Pyrrolo[2,3-d]pyrimidines containing an extended 5-substituent as potent and selective inhibitors of lck I” (Bioorg Med Chem Lett, 2000).

How the values were obtained:
[1] = molecular target: T1, Tyrosine-protein kinase Lck (Homo sapiens, UniProt P06239)
Description: Inhibition of p56 Lck tyrosine kinase at 5 uM ATP

[2] = molecular target: Vascular endothelial growth factor receptor 2 (Homo sapiens, UniProt P35968)
Description: Inhibition of Vascular endothelial growth factor receptor 2 at 5 uM ATP

[3] = molecular target: Cyclin-dependent kinase 1/cyclin B (Homo sapiens, UniProt P06493); assay: Inhibition of CDC2/CyB; assay type: protein-complex assay
[4] = molecular target: Proto-oncogene tyrosine-protein kinase Src (Homo sapiens, UniProt P12931)
Sequence of Proto-oncogene tyrosine-protein kinase Src (P12931 2-536 limits assumed): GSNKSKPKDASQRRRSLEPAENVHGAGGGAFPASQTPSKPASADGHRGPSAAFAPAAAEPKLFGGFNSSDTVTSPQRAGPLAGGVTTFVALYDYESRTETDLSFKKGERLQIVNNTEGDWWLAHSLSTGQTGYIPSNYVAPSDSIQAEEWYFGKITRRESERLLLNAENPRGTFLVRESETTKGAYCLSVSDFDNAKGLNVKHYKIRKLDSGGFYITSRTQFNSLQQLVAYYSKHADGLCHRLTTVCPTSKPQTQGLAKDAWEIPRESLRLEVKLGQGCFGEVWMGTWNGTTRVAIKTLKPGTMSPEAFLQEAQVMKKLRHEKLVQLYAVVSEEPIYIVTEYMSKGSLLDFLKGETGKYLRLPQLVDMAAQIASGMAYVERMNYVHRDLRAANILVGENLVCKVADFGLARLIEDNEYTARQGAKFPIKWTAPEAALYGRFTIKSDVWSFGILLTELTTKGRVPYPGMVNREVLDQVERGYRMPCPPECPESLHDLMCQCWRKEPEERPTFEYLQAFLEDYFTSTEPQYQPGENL
Description: Inhibition of src at 5 mM ATP

[5] = molecular target: T2, Tyrosine-protein kinase ZAP-70 (Homo sapiens, UniProt P43403); assay: Inhibition of Zap 70
T2 sequence (P43403 whole entry): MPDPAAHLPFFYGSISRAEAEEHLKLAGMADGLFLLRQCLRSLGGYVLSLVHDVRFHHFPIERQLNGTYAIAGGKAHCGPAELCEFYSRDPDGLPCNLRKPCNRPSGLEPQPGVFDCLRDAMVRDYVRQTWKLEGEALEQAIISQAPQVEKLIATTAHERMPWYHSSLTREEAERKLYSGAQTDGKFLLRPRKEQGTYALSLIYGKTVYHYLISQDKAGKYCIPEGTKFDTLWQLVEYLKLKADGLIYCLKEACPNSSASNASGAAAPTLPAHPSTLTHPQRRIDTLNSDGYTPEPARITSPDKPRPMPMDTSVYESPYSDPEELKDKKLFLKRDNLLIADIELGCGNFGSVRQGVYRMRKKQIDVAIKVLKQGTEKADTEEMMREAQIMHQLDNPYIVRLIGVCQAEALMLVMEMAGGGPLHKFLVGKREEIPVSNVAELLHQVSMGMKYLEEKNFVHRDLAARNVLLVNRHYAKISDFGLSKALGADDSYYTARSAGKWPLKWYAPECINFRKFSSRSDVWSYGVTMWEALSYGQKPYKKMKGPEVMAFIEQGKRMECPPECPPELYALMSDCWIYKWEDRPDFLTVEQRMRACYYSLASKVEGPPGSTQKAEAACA

Protein kinase C (PKC) = assay: Inhibition of PKC; assay type: protein assay
Jurkat [6] = assay: Inhibition of PMA stimulated IL-2 production in Jurkat cells; assay type: functional, cell-based; conditions: Homo sapiens
Jurkat [7] = assay: Inhibition of MLR stimulated IL-2 production in Jurkat cells; assay type: functional, cell-based; conditions: Homo sapiens
Angiopoietin-1 receptor = Angiopoietin-1 receptor (Homo sapiens, UniProt Q02763)
Sequence of Angiopoietin-1 receptor (Q02763 whole entry): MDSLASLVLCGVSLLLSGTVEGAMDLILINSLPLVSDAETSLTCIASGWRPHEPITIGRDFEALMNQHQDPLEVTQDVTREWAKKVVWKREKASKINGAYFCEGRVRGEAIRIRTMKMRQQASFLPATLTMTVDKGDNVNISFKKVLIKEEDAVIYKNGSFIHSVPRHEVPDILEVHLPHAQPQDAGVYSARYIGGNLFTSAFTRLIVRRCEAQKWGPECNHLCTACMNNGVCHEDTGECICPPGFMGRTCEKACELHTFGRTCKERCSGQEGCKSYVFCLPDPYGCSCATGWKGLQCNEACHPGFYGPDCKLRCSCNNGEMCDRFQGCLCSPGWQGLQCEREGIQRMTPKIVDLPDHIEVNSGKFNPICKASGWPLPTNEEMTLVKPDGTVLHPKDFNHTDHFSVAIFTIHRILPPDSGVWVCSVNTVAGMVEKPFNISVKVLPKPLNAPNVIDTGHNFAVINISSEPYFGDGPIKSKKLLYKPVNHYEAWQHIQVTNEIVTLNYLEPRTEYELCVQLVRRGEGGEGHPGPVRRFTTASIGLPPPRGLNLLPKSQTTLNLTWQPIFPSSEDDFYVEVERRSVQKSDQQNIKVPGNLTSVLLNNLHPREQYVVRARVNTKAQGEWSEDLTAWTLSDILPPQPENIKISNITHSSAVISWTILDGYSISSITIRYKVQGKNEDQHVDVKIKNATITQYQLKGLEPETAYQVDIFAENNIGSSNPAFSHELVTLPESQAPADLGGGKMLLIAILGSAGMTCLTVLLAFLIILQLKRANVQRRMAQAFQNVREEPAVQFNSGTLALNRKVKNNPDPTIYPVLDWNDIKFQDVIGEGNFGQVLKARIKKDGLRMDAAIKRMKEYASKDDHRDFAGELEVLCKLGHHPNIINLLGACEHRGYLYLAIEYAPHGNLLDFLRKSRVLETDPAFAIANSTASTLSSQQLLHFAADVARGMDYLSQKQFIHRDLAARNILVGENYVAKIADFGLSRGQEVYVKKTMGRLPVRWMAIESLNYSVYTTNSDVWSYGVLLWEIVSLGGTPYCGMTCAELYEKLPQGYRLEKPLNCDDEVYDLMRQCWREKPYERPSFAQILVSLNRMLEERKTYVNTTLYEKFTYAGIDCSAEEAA
Description: Inhibition of tie-2 at 5 uM ATP

[8] = molecular target: T1, Tyrosine-protein kinase Lck; remark: listed apart in the source
Description: Inhibition of p56 Lck tyrosine kinase catalytic domain at 5 uM ATP

Jurkat [9] = assay: Inhibition of anti-CD3 stimulated IL-2 production by Jurkat cells; assay type: functional, cell-based; conditions: Homo sapiens
[10] = molecular target: T1, Tyrosine-protein kinase Lck; remark: listed apart in the source
Description: Inhibition of p56 Lck tyrosine kinase at 1 mM ATP

[11] = molecular target: T1, Tyrosine-protein kinase Lck; remark: listed apart in the source
Description: Inhibition of p56 Lck tyrosine kinase catalytic domain at 1 mM ATP

T1 sequence (P06239 whole entry): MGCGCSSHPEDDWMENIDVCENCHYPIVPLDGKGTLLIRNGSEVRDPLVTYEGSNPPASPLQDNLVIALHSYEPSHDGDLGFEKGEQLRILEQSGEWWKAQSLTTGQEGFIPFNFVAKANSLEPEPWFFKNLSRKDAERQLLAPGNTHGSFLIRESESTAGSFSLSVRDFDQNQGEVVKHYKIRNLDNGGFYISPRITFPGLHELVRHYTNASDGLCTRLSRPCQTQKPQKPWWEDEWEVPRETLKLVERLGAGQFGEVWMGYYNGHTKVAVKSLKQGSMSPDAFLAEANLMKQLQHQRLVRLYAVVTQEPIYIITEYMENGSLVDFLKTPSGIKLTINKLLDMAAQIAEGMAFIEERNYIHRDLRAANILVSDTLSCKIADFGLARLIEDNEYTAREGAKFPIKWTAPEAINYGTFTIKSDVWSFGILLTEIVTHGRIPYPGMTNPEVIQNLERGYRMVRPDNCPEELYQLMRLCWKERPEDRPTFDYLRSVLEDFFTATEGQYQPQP
Sequence of Vascular endothelial growth factor receptor 2 (P35968 whole entry): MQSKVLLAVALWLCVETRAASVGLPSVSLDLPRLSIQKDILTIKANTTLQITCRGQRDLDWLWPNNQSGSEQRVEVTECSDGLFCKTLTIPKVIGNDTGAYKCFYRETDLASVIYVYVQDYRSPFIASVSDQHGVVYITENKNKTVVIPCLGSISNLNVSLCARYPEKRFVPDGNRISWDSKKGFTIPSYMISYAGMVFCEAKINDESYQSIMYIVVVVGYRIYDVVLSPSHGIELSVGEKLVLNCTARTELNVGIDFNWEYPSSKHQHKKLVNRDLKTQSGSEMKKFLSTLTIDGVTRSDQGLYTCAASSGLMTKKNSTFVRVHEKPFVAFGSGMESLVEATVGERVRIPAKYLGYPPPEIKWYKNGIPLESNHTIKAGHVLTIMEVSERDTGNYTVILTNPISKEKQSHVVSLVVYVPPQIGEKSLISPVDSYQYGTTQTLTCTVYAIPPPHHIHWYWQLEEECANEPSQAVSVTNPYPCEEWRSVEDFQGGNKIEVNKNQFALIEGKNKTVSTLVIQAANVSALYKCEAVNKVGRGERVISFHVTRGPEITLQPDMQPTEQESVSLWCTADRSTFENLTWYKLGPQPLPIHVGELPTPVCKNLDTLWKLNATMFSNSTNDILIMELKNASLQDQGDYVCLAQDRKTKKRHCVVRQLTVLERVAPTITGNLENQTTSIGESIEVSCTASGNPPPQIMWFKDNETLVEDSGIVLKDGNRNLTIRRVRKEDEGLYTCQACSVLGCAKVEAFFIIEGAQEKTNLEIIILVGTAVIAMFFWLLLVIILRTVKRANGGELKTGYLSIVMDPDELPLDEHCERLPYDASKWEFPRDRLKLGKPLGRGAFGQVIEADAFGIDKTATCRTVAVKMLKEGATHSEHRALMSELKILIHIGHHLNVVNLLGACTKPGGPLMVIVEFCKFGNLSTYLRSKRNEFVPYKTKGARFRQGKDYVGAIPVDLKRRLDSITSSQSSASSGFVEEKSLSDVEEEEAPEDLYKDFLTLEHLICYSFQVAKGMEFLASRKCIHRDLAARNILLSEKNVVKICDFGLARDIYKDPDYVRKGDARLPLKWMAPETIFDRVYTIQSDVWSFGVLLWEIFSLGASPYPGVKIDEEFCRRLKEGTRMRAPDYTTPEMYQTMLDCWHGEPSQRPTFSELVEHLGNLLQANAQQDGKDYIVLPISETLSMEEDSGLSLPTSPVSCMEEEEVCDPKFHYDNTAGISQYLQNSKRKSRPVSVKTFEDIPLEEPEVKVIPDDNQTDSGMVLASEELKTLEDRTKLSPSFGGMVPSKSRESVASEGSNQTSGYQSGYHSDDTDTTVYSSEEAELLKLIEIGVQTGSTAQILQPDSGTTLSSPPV

## Nc1ncnc2c1c(-c1ccccc1Oc1ccccc1)cn2C1CCCC1
[1]
  IC50: 390 nM
[2]
  IC50: > 50000 nM

## Nc1ncnc2c1c(-c1ccc(Oc3ccccc3)cc1)cn2C1CCC(O)C1 (stereo unspecified)
[3]
  IC50: > 50000 nM
[4]
  IC50: 88 nM
[5]
  IC50: > 50000 nM
Protein kinase C (PKC)
  IC50: > 33000 nM
Jurkat [6]
  IC50: 3000 nM
Jurkat [7]
  IC50: 28 nM
Angiopoietin-1 receptor
  IC50: 58.3 nM
[2]
  IC50: 85 nM

## Nc1ncnc2c1c(-c1ccc(Oc3ccccc3)cc1)cn2C1CCCC1
[3]
  IC50: > 50000 nM
[8]
  IC50: 2 nM
[4]
  IC50: 70 nM
[1]
  IC50: < 1 nM
[5]
  IC50: > 50000 nM
Protein kinase C (PKC)
  IC50: > 33000 nM
Jurkat [6]
  IC50: 1500 nM
Jurkat [9]
  IC50: 40 nM
[10]
  IC50: 16 nM
[11]
  IC50: 1070 nM
[2]
  IC50: 1570 nM

## c1ccc(Oc2ccc(Nc3ncnc4ccccc34)cc2)cc1
[1]
  IC50: < 8 nM

## Nc1ncnc2c1c(-c1cccc(Oc3ccccc3)c1)cn2C1CCCC1
[4]
  IC50: > 1000 nM

## Cc1ccc(-c2nn(C(C)(C)C)c3ncnc(N)c23)cc1
Jurkat [9]
  IC50: 1200 nM
Jurkat [7]
  IC50: 400 nM

## CC(C)(C)n1cc(-c2ccc(Cl)cc2)c2c(N)ncnc21
[1]
  IC50: 220 nM
